Results from US20100121049A1, “INDENOISOQUINOLINONE ANALOGS AND METHODS OF USE THEREOF” (INOTEK PHARMACEUTICALS CORPORATION, priority 2007, published 2010).

Target: T1, PARP (Mus musculus, UniProt P11103)
T1 construct: PARP Activity in Cultured Macrophages, Using a Whole-Cell Based Assay; host or cells: murine RAW macrophages
Assay: PARP activity in cultured macrophages, whole-cell based assay (3H-NAD+ incorporation after hydrogen peroxide)
Conditions: murine RAW macrophages; compound 1 hour prior to hydrogen peroxide (0.5 mM) for 25 minutes; PARP activity by 3H-NAD+
Procedure: Effect of Indenoisoquinolinone Analogs on PARP Activity in Cultured Macrophages, Using a Whole-Cell Based Assay
The murine RAW macrophages (ATCC, American Type Culture Collection, Manassas, Va.) were grown in RPMI […] (Invitrogen Life Technologies; Carlsbad, Calif.) medium supplemented with 10% heat-inactivated FBS, 2 mM L-glutamine, and 100 U/ml of penicillin and streptomycin. Cells, between passages 5 and 15, were seeded at a density of 250,000 cells/well in 12 well plates and allowed to grow 48 hours before use. Growth medium was changed on the day of use. Cells were treated with an Indenoisoquinolinone Analog diluted in a growth medium supplemented with 10% fetal bovine serum (FBS) for 1 hour prior to the addition of hydrogen peroxide (0.5 mM) for a further 25 minutes. For the measurement of PARP activity, media was removed and replaced with 0.5 ml of the assay buffer (56 mM HEPES-pH 7.5, 28 mM KCl, 28 mM NaCl, 2 mM MgCl2, 0.01% digitonin, and 0.5 μCi/m1 of ^3H-NAD^+) for 20 minutes. After aspirating the assay buffer, cells were lysed and transferred to eppendorf tubes containing 250 μl of 50% ice-cold trichloroacetic acid (TCA), which were then placed at 4° C. for 4 hours. Samples were centrifuged at 10,000 g for 10 minutes and supernatant removed. The pellets were washed twice with 500 μl of ice-cold 5% w/v TCA. The pellets were then solubilized in 250 μl of NaOH (0.1 M) containing 2% SDS overnight at 37° C. and the PARP activity was then determined by measuring the radioactivity incorporated using a Wallac scintillation counter. The solubilized protein (250 μl) was mixed with 5 ml of scintillation fluid (ScintiSafe Plus, Fisher Scientific) before being counted for 3 minutes. EC50 values were determined from a dose-response curve.

T1 sequence (P11103 whole entry): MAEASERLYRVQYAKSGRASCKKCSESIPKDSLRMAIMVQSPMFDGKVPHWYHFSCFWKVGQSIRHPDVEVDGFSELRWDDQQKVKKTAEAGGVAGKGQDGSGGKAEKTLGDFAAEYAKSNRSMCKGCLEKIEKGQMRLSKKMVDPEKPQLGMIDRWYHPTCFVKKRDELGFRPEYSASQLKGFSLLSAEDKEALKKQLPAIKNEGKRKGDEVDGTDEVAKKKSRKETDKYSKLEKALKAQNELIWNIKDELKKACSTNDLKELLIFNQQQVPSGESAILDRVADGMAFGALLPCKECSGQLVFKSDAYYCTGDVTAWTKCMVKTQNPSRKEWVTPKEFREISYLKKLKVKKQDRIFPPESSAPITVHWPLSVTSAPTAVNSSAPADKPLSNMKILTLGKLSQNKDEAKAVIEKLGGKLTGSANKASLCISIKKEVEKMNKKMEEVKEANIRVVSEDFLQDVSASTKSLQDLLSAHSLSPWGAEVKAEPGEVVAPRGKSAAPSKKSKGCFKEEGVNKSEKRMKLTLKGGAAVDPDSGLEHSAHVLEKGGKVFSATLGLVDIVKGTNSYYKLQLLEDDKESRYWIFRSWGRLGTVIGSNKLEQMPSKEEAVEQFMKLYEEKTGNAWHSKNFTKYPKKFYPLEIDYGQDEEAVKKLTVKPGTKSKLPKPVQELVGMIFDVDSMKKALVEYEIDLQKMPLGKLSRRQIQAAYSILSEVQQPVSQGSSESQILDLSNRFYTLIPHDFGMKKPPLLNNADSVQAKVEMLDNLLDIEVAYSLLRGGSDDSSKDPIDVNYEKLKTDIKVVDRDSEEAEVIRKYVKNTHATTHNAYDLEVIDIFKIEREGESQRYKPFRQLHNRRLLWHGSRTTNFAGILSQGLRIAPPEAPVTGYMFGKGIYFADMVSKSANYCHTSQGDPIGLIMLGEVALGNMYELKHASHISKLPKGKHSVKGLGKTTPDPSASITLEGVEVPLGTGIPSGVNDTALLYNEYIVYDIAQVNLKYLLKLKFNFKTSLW

EC50 [nM] | Structure (SMILES)
9 | O=c1[nH]c2c(c3ccc(F)cc13)Cc1c(CNC3CCCC3)cccc1-2 [Va-3, 10-((cyclopentylamino)methyl)-3-fluoro-6,11-dihydro-5H-indeno[1,2-c]isoquinolin-5-one]
4 | O=c1[nH]c2c(c3cccc(F)c13)Cc1c(CNC3CCCC3)cccc1-2 [Va-4, 10-((cyclopentylamino)methyl)-4-fluoro-6,11-dihydro-5H-indeno[1,2-c]isoquinolin-5-one]
5 | O=c1[nH]c2c(c3ccc(F)cc13)Cc1c(CNC3CCOCC3)cccc1-2 [Va-5, 3-fluoro-10-((tetrahydro-2H-pyran-4-ylamino)methyl)-6,11-dihydro-5H-indeno[1,2-c]isoquinolin-5-one]
5 | O=c1[nH]c2c(c3c(F)cccc13)Cc1c(CNC3CCCC3)cccc1-2 [Va-7, 10-((cyclopentylamino)methyl)-1-fluoro-6,11-dihydro-5H-indeno[1,2-c]isoquinolin-5-one]
3 | O=c1[nH]c2c(c3ccccc13)Cc1c(CNC3(CO)CCCC3)cc(F)cc1-2 [Va-9, 8-fluoro-10-((1-(hydroxymethyl)cyclopentylamino)methyl)-6,11-dihydro-5H-indeno[1,2-c]isoquinolin-5-one]
3 | O=c1[nH]c2c(c3ccc(F)cc13)Cc1c(CNC3(CO)CCCC3)cc(F)cc1-2 [Va-10, 3,8-difluoro-10-((1-(hydroxymethyl)cyclopentylamino)methyl)-6,11-dihydro-5H-indeno[1,2-c]isoquinolin-5-one]
